Assay results: ChEMBL document CHEMBL1201862, “PubChem BioAssay data set” (2004)
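Method: 48-hour compound exposure of cells in 96-well plates, five concentrations, linear interpolation of endpoints. GI50 is the concentration that inhibits growth by half.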 The source made the active and inactive calls. No stated cut-off is given here; in the data, active = GI50 up to about 1.1 µM and inactive = higher. Bridge positions count the residues as written; N and C are the ends. Square brackets hold non-standard residues; d marks the D form. Peptide text beside a SMILES is read from it. * marks the point of attachment. Cya = N[CH](CS(=O)(=O)O)C(=O)O; X49 = CC(C)CCCCCCCC(O)CC(=O)*; GABA = NCCCC(=O)O

Legend:
Test in all cases: growth of human tumour cells (NCI), 48 h
NCI-H23 = tested on: NCI-H23
MOLT-4 = tested on: MOLT-4
A498 = tested on: A498
U-251 = tested on: U-251
HCT-15 = tested on: HCT-15
UACC-62 = tested on: UACC-62
SW-620 = tested on: SW-620
SK-MEL-2 = tested on: SK-MEL-2
SR = tested on: SR
SN12C = tested on: SN12C
T47D = tested on: T47D
Malme-3M = tested on: Malme-3M
SNB-19 = tested on: SNB-19
HCC 2998 = tested on: HCC 2998
NCI-H460 = tested on: NCI-H460
UACC-257 = tested on: UACC-257
OVCAR-5 = tested on: OVCAR-5
NCI-H522 = tested on: NCI-H522
EKVX = tested on: EKVX
ACHN = tested on: ACHN

SMILES	GI50 (NCI-H23)	GI50 (MOLT-4)	GI50 (A498)	GI50 (U-251)	GI50 (HCT-15) [µM]	GI50 (UACC-62)	GI50 (SW-620)	GI50 (SK-MEL-2)	GI50 (SR)	GI50 (SN12C)	GI50 (T47D)	GI50 (Malme-3M)	GI50 (SNB-19)	GI50 (HCC 2998)	GI50 (NCI-H460)	GI50 (UACC-257)	GI50 (OVCAR-5)	GI50 (NCI-H522)	GI50 (EKVX)	GI50 (ACHN)
Cc1nc(O)nc(NNCc2ccc(Cl)cc2)c1C(=O)Nc1ccc(Cl)cc1	> 100 µM (inactive)	> 100 µM (inactive)	> 100 µM (inactive)	> 100 µM (inactive)	50.1	3.69 µM (inactive)	> 100 µM (inactive)	> 100 µM (inactive)	> 100 µM (inactive)	> 100 µM (inactive)	> 100 µM (inactive)	> 100 µM (inactive)	> 100 µM (inactive)	> 100 µM (inactive)	> 100 µM (inactive)	> 100 µM (inactive)	> 100 µM (inactive)			
CCC(C#N)N(Cc1ccc(CN(C(=O)c2ccccc2)C(C#N)CC)cc1)C(=O)c1ccccc1 (stereo not drawn)	25.7 µM (inactive)	15.8 µM (inactive)	18.8 µM (inactive)	22.6 µM (inactive)	22.2	12.1 µM (inactive)	28.5 µM (inactive)	21.7 µM (inactive)	54.6 µM (inactive)	27.1 µM (inactive)	9.02 µM (inactive)	31.6 µM (inactive)	27 µM (inactive)	14.6 µM (inactive)		16.6 µM (inactive)	37.8 µM (inactive)	23 µM (inactive)	22.8 µM (inactive)	26.4 µM (inactive)
CCOC(=O)c1sc2nc(SC)nc(Nc3ccc4c(c3)OCO4)c2c1N	53 µM (inactive)	> 100 µM (inactive)	28.4 µM (inactive)	32.9 µM (inactive)	0.706	25.1 µM (inactive)	4.34 µM (inactive)	68.4 µM (inactive)	> 100 µM (inactive)	59 µM (inactive)	39.5 µM (inactive)	29.6 µM (inactive)	54.7 µM (inactive)	> 100 µM (inactive)	> 100 µM (inactive)	> 100 µM (inactive)	> 100 µM (inactive)	46.7 µM (inactive)	31.9 µM (inactive)	19.9 µM (inactive)
CC(Br)C(=O)c1ccc2cc(Br)c3ccccc3c2c1 (stereo not drawn)	16 µM (inactive)		18.7 µM (inactive)	13.7 µM (inactive)	16.6	15.4 µM (inactive)	6.01 µM (inactive)	13.2 µM (inactive)	3.15 µM (inactive)	7.01 µM (inactive)	11.9 µM (inactive)	15.1 µM (inactive)	17.4 µM (inactive)	15.7 µM (inactive)	16 µM (inactive)	16.9 µM (inactive)	17 µM (inactive)	3.97 µM (inactive)	14.4 µM (inactive)	17.6 µM (inactive)
CN1C(=O)c2c(c3c4ccccc4n(C)c3c3c2c2ccccc2n3C)C1=O	> 100 µM (inactive)	> 100 µM (inactive)	> 100 µM (inactive)	> 100 µM (inactive)	> 100	> 100 µM (inactive)	> 100 µM (inactive)	> 100 µM (inactive)	67.3 µM (inactive)	> 100 µM (inactive)	> 100 µM (inactive)	> 100 µM (inactive)	> 100 µM (inactive)	> 100 µM (inactive)	> 100 µM (inactive)	> 100 µM (inactive)	> 100 µM (inactive)	> 100 µM (inactive)	> 100 µM (inactive)	> 100 µM (inactive)
C=CCC(CNC(=O)OCc1ccccc1)O[Si](C)(C)C(C)(C)C (stereo not drawn)	55.5 µM (inactive)	19.6 µM (inactive)	38.8 µM (inactive)	25.6 µM (inactive)	35.9	23.2 µM (inactive)	38.1 µM (inactive)	16.6 µM (inactive)	18.5 µM (inactive)	31.2 µM (inactive)	22.9 µM (inactive)		40.3 µM (inactive)	39.5 µM (inactive)	25.6 µM (inactive)	25.4 µM (inactive)	26.3 µM (inactive)	24.9 µM (inactive)	25.4 µM (inactive)	33.6 µM (inactive)
O=C1CCCC2=C1CC1=C(CCCC1=O)N2c1ccc(-c2ccccc2)cc1	> 100 µM (inactive)	> 100 µM (inactive)	> 100 µM (inactive)	> 75 µM (inactive)	> 100	> 66.5 µM (inactive)	> 100 µM (inactive)	> 100 µM (inactive)	> 100 µM (inactive)	> 100 µM (inactive)	> 100 µM (inactive)	> 100 µM (inactive)	> 63.2 µM (inactive)	> 100 µM (inactive)	> 100 µM (inactive)	> 100 µM (inactive)	> 100 µM (inactive)	> 100 µM (inactive)	> 100 µM (inactive)	> 100 µM (inactive)
COC(=O)C1=C(O)C(C(=O)OC)[C@]2(O)[C@H](C(=O)OC)[C@H]1C[C@@H](c1ccc(Cl)cc1)[C@H]2C(=O)OC (stereo partly drawn)	7.18 µM (inactive)	3.64 µM (inactive)	11.7 µM (inactive)	6.05 µM (inactive)	4.59	7.69 µM (inactive)	7.29 µM (inactive)	1.79 µM (inactive)	4.17 µM (inactive)	5.16 µM (inactive)	6.58 µM (inactive)	6.56 µM (inactive)	5.5 µM (inactive)	6.79 µM (inactive)	5.45 µM (inactive)	7.6 µM (inactive)	14.5 µM (inactive)		10.9 µM (inactive)	7.45 µM (inactive)
CC(C)CCCCCCCC(O)CC(=O)NC(CS(=O)(=O)O)C(=O)NC(CC(C)C)C(=O)NCCCC(=O)NC(Cc1c[nH]cn1)C(=O)NC(C)C(=O)NC1C(=O)NC(C(C)O)C(=O)NC(Cc2c[nH]cn2)C(=O)NC(C)C(=O)NC(C(C)O)C(=O)OC1C (stereo not drawn) (X49-[Cya]L[GABA]HATTHAT; ester 6-C; configuration not given here)	> 25 µM (inactive)	> 25 µM (inactive)	> 25 µM (inactive)	> 25 µM (inactive)	> 25	> 25 µM (inactive)	> 25 µM (inactive)	> 25 µM (inactive)	17.5 µM (inactive)	> 25 µM (inactive)	> 25 µM (inactive)	> 25 µM (inactive)	> 25 µM (inactive)	> 25 µM (inactive)	> 25 µM (inactive)	> 25 µM (inactive)	> 25 µM (inactive)	> 25 µM (inactive)	> 25 µM (inactive)	> 25 µM (inactive)
COc1cc(C2C3=C(COC3=O)OC(C)(C)Oc3cc4c(cc32)OCO4)cc(OC)c1O (stereo not drawn)	1.86 µM (inactive)	3.11 µM (inactive)	1.04 µM (active)	0.966 µM (active)	0.873	3.27 µM (inactive)	0.608 µM (active)	14.6 µM (inactive)	1.01 µM (active)	2.79 µM (inactive)	0.498 µM (active)	0.746 µM (active)	1.33 µM (inactive)	2.27 µM (inactive)	0.643 µM (active)	5.14 µM (inactive)	3.58 µM (inactive)	0.244 µM (active)	4.12 µM (inactive)	0.851 µM (active)
CC(=O)c1sc2c(c1OC(=O)c1ccccc1)c(=O)n(-c1ccccc1)c(=S)n2-c1ccccc1	27.3 µM (inactive)	2.26 µM (inactive)	2.49 µM (inactive)	3.94 µM (inactive)	18	13.4 µM (inactive)	15.2 µM (inactive)	2.79 µM (inactive)	3.95 µM (inactive)	5.78 µM (inactive)	9.23 µM (inactive)	2.46 µM (inactive)	4.84 µM (inactive)	17.3 µM (inactive)	11.2 µM (inactive)	4.38 µM (inactive)	3.82 µM (inactive)	28.6 µM (inactive)	15.9 µM (inactive)	3.03 µM (inactive)
Cc1cc(S(=O)(=O)Nc2nc(N)n(-c3ccccc3)n2)c(S)cc1Cl		> 100 µM (inactive)	> 100 µM (inactive)	60 µM (inactive)	> 100	> 100 µM (inactive)	> 100 µM (inactive)	> 100 µM (inactive)	> 100 µM (inactive)	> 100 µM (inactive)	> 100 µM (inactive)	> 100 µM (inactive)	43.1 µM (inactive)	> 100 µM (inactive)	> 100 µM (inactive)	> 100 µM (inactive)	> 100 µM (inactive)	> 100 µM (inactive)	> 100 µM (inactive)	> 100 µM (inactive)
CCOC(=O)c1csc(-c2cn(C)c3c2C(=O)C(OC)=CC3=O)n1	11.3 µM (inactive)	> 100 µM (inactive)	24.3 µM (inactive)	15.4 µM (inactive)	9.75	21.2 µM (inactive)	55.2 µM (inactive)	21.7 µM (inactive)	> 53.5 µM (inactive)	> 75.2 µM (inactive)	> 95.1 µM (inactive)		14.2 µM (inactive)	23.8 µM (inactive)	8.73 µM (inactive)	21.6 µM (inactive)	31.1 µM (inactive)	36.6 µM (inactive)	> 86.3 µM (inactive)	34.8 µM (inactive)
O=c1[nH]c(=O)c2c([nH]1)[nH]c1ccc(Br)cc12	> 100 µM (inactive)		> 100 µM (inactive)		66.1	> 100 µM (inactive)	> 100 µM (inactive)	> 100 µM (inactive)	> 100 µM (inactive)	> 100 µM (inactive)	> 100 µM (inactive)	> 100 µM (inactive)	> 100 µM (inactive)	28 µM (inactive)		> 100 µM (inactive)	> 100 µM (inactive)	> 100 µM (inactive)	> 100 µM (inactive)	70 µM (inactive)
